Several values for one entry are separate records, joined by “and”; a condition that tells them apart may be missing. Equal entries are not always repeated.
Tests used:
[1] = system: Adriamycin (ADR)-induced nephropathy in Balb/c mice; test: ADR nephropathy: serum cholesterol and triglycerides; assay type: in vivo, mouse
[2] = system: Adriamycin (ADR)-induced nephropathy in Balb/c mice; test: ADR nephropathy: WBC, hemoglobin, hematocrit, ALT, AST; assay type: in vivo, mouse; conditions: ADR-induced nephropathy
[3] = system: Adriamycin (ADR)-induced nephropathy in Balb/c mice; test: ADR nephropathy: blood urea nitrogen (BUN) and serum creatinine; assay type: in vivo, mouse; conditions: 28 days treatment
Source text: Supplement 41467_2021_24890_MOESM5_ESM.xlsx, sheet "Supplementary Table 4" | column: ADR+ Cpd A; ADR+ Cpd G; ADR+ Cpd C

[4] = system: Adriamycin (ADR)-induced nephropathy in Balb/c mice; test: Adriamycin-induced nephropathy, dose-finding pilot study: ACR and body weight time course; conditions: ADR, 10 mg/Kg/day, individual mice, 10 mg/kg/day
[5] = system: Adriamycin (ADR)-induced nephropathy in Balb/c mice; test: ADR nephropathy: kidney cortex lipids (cholesterol ester, total cholesterol, triglycerides, Oil-red O); assay type: in vivo, mouse
Procedure: OCT embedded kidney cortex samples were cryosectioned at 4 μm thickness and stained with Oil-Red O-isopropanol solution (Electron Microscopy Science, PA) diluted 6:4 in water, and then counterstained with Hematoxylin Harris Hg Free (VWR, PA). Sections were then evaluated using a light microscope (Olympus BX 41, Tokyo, Japan).
Snap frozen kidney cortex samples were homogenized in 2 mM potassium phosphate buffer, pH 7, (10 µl buffer/mg tissue) using a glass douncer on ice. 100 μl of the homogenate were mixed thoroughly with 1 ml of hexane:isopropanol (3:2;v:v) per volume of tissue homogenate. The aqueous (pellet) and organic (supernatant) phases were separated by centrifugation at 12,000 × g for 5 min. Pellets (aqueous phase) were dried, reconstituted in 8 M urea, 0.1% SDS, 0.1 M NaOH, and total proteins were quantified by the BCA method (Thermofisher). The organic phase was dried by exposure to nitrogen. Lipids were then reconstituted in 100 µl isopropanol:NP-40 (9:1;v:v). Triglyceride content was assayed using a colorimetric kit according to the manufacturer’s instructions (Cayman Chemical USA). Total cholesterol and CE content were assayed using an enzymatic fluorometric method. For total cholesterol measurement, extracts were diluted 1:100 in assay buffer (100 mM potassium phosphate, 50 mM NaCl, 5 mM cholic acid, 0.1% Triton […], pH 7.4) containing cholesterol oxidase (1 U/ml), cholesterol esterase (1 U/ml), horseradish peroxidase (1 U/ml), and Amplex Red (75 µM). The reactions were incubated at 37 °C for 30 min in a black opaque 96-well plate (Greiner) and fluorescence was measured in a microplate reader (Spectramax i3X, Molecular Devices) at 530 nm excitation and 580 emission.
For CE determination, 150 µl of the assay buffer described above, supplemented with bovine liver catalase (45 U/ml) and cholesterol oxidase (1 U/ml), was added to 25 μl of sample and incubated overnight at 37 °C to deplete free cholesterol leaving only cholesterol esters. Then, 75 µl of cholesterol ester detection reagent (1 U/ml cholesterol oxidase, 4 U/ml cholesterol esterase, 24 U/ml horseradish peroxidase, 300 µM Amplex Red) was added. The reaction was incubated at 37 °C for 30 min and the fluorescence signal was measured as described above. Internal standards included samples containing 1 mM of cholesterol and 5 μM of cholesterol oleate in order to verify the completeness of the enzymatic decomposition of free cholesterol as well as assay sensitivity and specificity.

[6] = ADR-injected mice, 28-day treatment, 25th quartile
[7] = ADR-injected mice, 28-day treatment, 75th quartile
[8] = ADR-injected mice, 28-day treatment, group maximum
[9] = ADR-injected mice, 28-day treatment, group median
[10] = ADR-injected mice, 28-day treatment, group minimum
[11] = ADR-injected mice, 28-day treatment, individual mouse values
[12] = 28 days treatment, 25th quartile
[13] = 28 days treatment, 75th quartile
[14] = 28 days treatment, group maximum
[15] = 28 days treatment, group median
[16] = 28 days treatment, group minimum
[17] = 28 days treatment, individual mouse values

Cholesterol (mg/dL), Median(IQR) ([1]; serum, after ADR challenge): 112(81-141) mg/dL | Cholesterol (mg/dL), Range ([1]; serum, after ADR challenge): 60 to 223 mg/dL | Cholesterol, % of the group> 112 mg/dL ([1]; serum, after ADR challenge): 30% | Triglycerides (mg/dL), Median(IQR) ([1]; serum, after ADR challenge): 62(56-102) mg/dL | Triglycerides (mg/dL), Range ([1]; serum, after ADR challenge): 44 to 182 mg/dL | Animals with higher triglyceride content in kidney cortexes ([5]; ADR, Cpd C 10 mg/Kg): about 30%
Compound: Cc1oc(-c2cccc(C(F)(F)F)c2)nc1Cn1c(C)cc2cc(C(O)(C(F)(F)F)C(F)(F)F)ccc21 [Cpd C, reference compound]
SERUM CHOLESTEROL ([1]; ADR model, individual animals): 104 and 64 and 223 and 112 and 98 and 124 and 145 and 136 and 60 | SERUM TRIGLYCERIDES ([1]; ADR model, individual animals): 57 and 182 and 112 and 55 and 91 and 62 and 66 and 44 | Serum cholesterol, QR(25) [1, 6]: 98 mg/dL | Serum triglycerides, QR(25) [1, 6]: 57 mg/dL | Serum cholesterol, QR(75) [1, 7]: 136 mg/dL | Serum triglycerides, QR(75) [1, 7]: 91 mg/dL | Serum cholesterol, Max [1, 8]: 223 mg/dL | Serum triglycerides, Max [1, 8]: 182 mg/dL | Serum cholesterol, Median [1, 9]: 112 mg/dL | Serum triglycerides, median [1, 9]: 62 mg/dL | Serum cholesterol, Min [1, 10]: 60 mg/dL | Serum triglycerides, Min [1, 10]: 44 mg/dL | SERUM CHOLESTEROL [1, 11]: 64 mg/dL and 223 mg/dL and 112 mg/dL and 98 mg/dL and 124 mg/dL and 145 mg/dL and 136 mg/dL and 60 mg/dL and 104 mg/dL | SERUM TRIGLYCERIDES [1, 11]: 57 mg/dL and 62 mg/dL and 66 mg/dL and 44 mg/dL and 182 mg/dL and 112 mg/dL and 55 mg/dL and 91 mg/dL | ALT, Median (IQR) [2]: 146 (71-682) U/L | ALT, Range [2]: 68-838 U/L | AST, Median (IQR) [2]: 165 (104-371) U/L | AST, Range [2]: 90-433 U/L | HTC, Median (IQR) [2]: 55 (45-64) % | HTC, Range [2]: 43-65% | Hgb, Median (IQR) [2]: 13.3 g/dL | Hgb, Range [2]: 11 to 15.9 g/dL | WBC, Median (IQR) [2]: 6.2 (5.5-7.9) x103cells/µL | WBC, Range [2]: 5.4-8.3 x103cells/µL | ALT, QR(25) [2, 12]: 76.25 U/L | AST, QR(25) [2, 12]: 131.25 U/L | HTC, QR(25) [2, 12]: 46% | Hgb, QR(25) [2, 12]: 12.5 g/dL | WBC, QR(25) [2, 12]: 6.4 x 10^3 cells/ul | ALT, QR(75) [2, 13]: 369.25 U/L | AST, QR(75) [2, 13]: 246.25 U/L | HTC, QR(75) [2, 13]: 64% | Hgb, QR(75) [2, 13]: 15.4 g/dL | WBC, QR(75) [2, 13]: 10.3 x 10^3 cells/ul | ALT, Max [2, 14]: 838 U/L | AST, Max [2, 14]: 433 U/L | HTC, Max [2, 14]: 65% | Hgb, Max [2, 14]: 15.9 g/dL | WBC, Max [2, 14]: 11.6 x 10^3 cells/ul | ALT, Median [2, 15]: 146 U/L | AST, Median [2, 15]: 164.5 U/L | HTC, Median [2, 15]: 55% | Hgb, Median [2, 15]: 13.3 g/dL | WBC, Median [2, 15]: 6.7 x 10^3 cells/ul | ALT, Min [2, 16]: 68 U/L | AST, Min [2, 16]: 90 U/L | HTC, Min [2, 16]: 43% | Hgb, Min [2, 16]: 11 g/dL | WBC, Min [2, 16]: 5.4 x 10^3 cells/ul | Alanine Aminotransferase (ALT) [2, 17]: 213 U/dL and 68 U/dL and 79 U/dL and 838 U/dL | Aspartate Aminotransferase (AST) [2, 17]: 184 U/dL and 90 U/dL and 145 U/dL and 433 U/dL | Hematocrit HTC [2, 17]: 64% and 65% and 55% and 46% and 43% and 44% | White Blood Cells WBC [2, 17]: 10.3 x 10^3 cells/ul and 6.7 x 10^3 cells/ul and 6.5 x 10^3 cells/ul and 5.9 x 10^3 cells/ul and 5.4 x 10^3 cells/ul and 8.3 x 10^3 cells/ul and 6.4 x 10^3 cells/ul and 11.6 x 10^3 cells/ul | BUN, QR(25) ([3]; 25th quartile): 16 mg/dL | sCre, QR(25) ([3]; 25th quartile): 0.09 mg/dL | BUN, QR(75) ([3]; 75th quartile): 20 mg/dL | sCre, QR(75) ([3]; 75th quartile): 0.16 mg/dL | BUN, Max ([3]; group maximum): 51 mg/dL | sCre, Max ([3]; group maximum): 0.47 mg/dL | BUN, Median ([3]; group median): 17 mg/dL | sCre, Median ([3]; group median): 0.12 mg/dL | BUN, Min ([3]; group minimum): 13 mg/dL | sCre, Min ([3]; group minimum): 0.09 mg/dL | Blood Urea nitrogen (BUN) ([3]; individual mouse values): 13 mg/dL and 32 mg/dL and 18 mg/dL and 16 mg/dL and 20 mg/dL and 51 mg/dL and 17 mg/dL | Serum Creatinine sCre ([3]; individual mouse values): 0.16 mg/dL and 0.47 mg/dL and 0.12 mg/dL and 0.09 mg/dL and 0.29 mg/dL and 0.14 mg/dL | Body Weight ([4]; 0 days after inj): 20 grams and 18 grams (2×) and 19 grams (2×) | ACR in spot urine ([4]; 7 days after inj): 0.033 mg Albumin/ mg Creatinine in urine and 0.087 mg Albumin/ mg Creatinine in urine and 0.021 mg Albumin/ mg Creatinine in urine and 0.039 mg Albumin/ mg Creatinine in urine and 0.361 mg Albumin/ mg Creatinine in urine | Body Weight ([4]; 7 days after inj): 19 grams (2×) and 17 grams and 18 grams (2×) | ACR in spot urine ([4]; 14 days after inj): 43.998 mg Albumin/ mg Creatinine in urine and 97.732 mg Albumin/ mg Creatinine in urine and 170.881 mg Albumin/ mg Creatinine in urine and 0.773 mg Albumin/ mg Creatinine in urine and 96.907 mg Albumin/ mg Creatinine in urine | Body Weight ([4]; 14 days after inj): 18 grams (2×) and 15 grams and 17 grams (2×) | ACR in spot urine ([4]; 21 days after inj): 110.345 mg Albumin/ mg Creatinine in urine and 164.518 mg Albumin/ mg Creatinine in urine and 91.2 mg Albumin/ mg Creatinine in urine and 9.219 mg Albumin/ mg Creatinine in urine and 93.57 mg Albumin/ mg Creatinine in urine | Body Weight ([4]; 21 days after inj): 18 grams (2×) and 13 grams and 19 grams and 16 grams | ACR in spot urine ([4]; 28 days after inj): 28.989 mg Albumin/ mg Creatinine in urine and 87.25 mg Albumin/ mg Creatinine in urine and 19.88 mg Albumin/ mg Creatinine in urine and 5.463 mg Albumin/ mg Creatinine in urine and 97.01 mg Albumin/ mg Creatinine in urine | Body Weight ([4]; 28 days after inj): 19 grams (2×) and 13 grams and 20 grams and 16 grams | KIDNEY CORTEX TOTAL CHOLESTEROL ([5]; ADR model, individual animals): 169.86 nmol Chol./mg protein and 129.15 nmol Chol./mg protein and 254.63 nmol Chol./mg protein and 268.95 nmol Chol./mg protein and 152.74 nmol Chol./mg protein and 180.44 nmol Chol./mg protein and 182.39 nmol Chol./mg protein and 272.02 nmol Chol./mg protein and 254.98 nmol Chol./mg protein | KIDNEY CORTEX TRIGLYCERIDES ([5]; ADR model, individual animals): 43.01 nmol Triglyceride /mg protein and 83.04 nmol Triglyceride /mg protein and 58.7 nmol Triglyceride /mg protein and 29.67 nmol Triglyceride /mg protein and 36.87 nmol Triglyceride /mg protein and 243.76 nmol Triglyceride /mg protein and 196.92 nmol Triglyceride /mg protein and 133.68 nmol Triglyceride /mg protein and 574.71 nmol Triglyceride /mg protein

Reference: PMC8329197, “Compounds targeting OSBPL7 increase ABCA1-dependent cholesterol efflux preserving kidney function in two models of kidney disease” (Nature Communications, 2021)
